Test results reported in patent US10723709B2, “Protease inhibitors” (MEDIVIR AB, priority 2008, dated 2020).

Assays:
[1] = In vivo mouse PK, oral administration (FIG. 1); set-up: species or system male C57Bl mice; conditions: mice, orally administered 60 μmol/kg in 1% Methocel A4C vehicle; compared with Example 2 of WO2008 007107
Description: FIG. 1 depicts plasma concentration against time for male C57Bl mice orally administered a compound of the invention or a compound of the prior art.
Various embodiments of the invention will now be described by way of illustration only with reference to the following Examples and FIG. 1 which depicts plasma concentration against time for male C57Bl mice orally administered a compound of the invention or a compound of the prior art.

[2] = reference markers of the permeability assay; cited from earlier work
[3] = test system: Caco-2 cells
Description: This experiment measures transport of inhibitors through the cells of the human gastroenteric canal. The assay uses the well known Caco-2 cells with a passage number between 40 and 60.
Apical to Basolateral Transport
The basolateral and the apical wells will contain 1.5 mL and 0.4 mL transport buffer (TB), respectively, and the standard concentration of the tested substances is 10 μM. Furthermore all test solutions and buffers will contain 1% DMSO. Prior to the experiment the transport plates are pre-coated with culture medium containing 10% serum for 30 minutes to avoid nonspecific binding to plastic material. After 21 to 28 days in culture on filter supports the cells are ready for permeability experiments. […]
0.5 mL transport buffer (HBSS, 25 mM MES, pH 6.5) is added to the inserts and the cell monolayers equilibrated in the transport buffer system for 30 minutes at 37° C. in a polymix shaker. After being equilibrated to the buffer system the Transepithelial electrical resistance value (TEER) is measured in each well by an EVOM chop stick instrument. […]
300 μL will be taken from the basolateral (receiver) wells at each scheduled time point and the post value of TEER is measured at the end the experiment. […]
Determination of the cumulative fraction absorbed, FAcum, versus time. FAcum is calculated from: […]
The determination of permeability coefficients (Papp, cm/s) are calculated from: […]

| Compound | % absorption in man [2] | further results |
| --- | --- | --- |
| C#C[C@@H]1CN(C(=O)[C@H](CC(C)C)NC(=O)c2ccc(-c3nc(N4CCN(C)CC4)sc3F)cc2)[C@@H]2C(=O)CO[C@H]12 [Example 2, N-[1-6-(ethynyl-3-oxo-hexahydro-furo[3,2-b]pyrrole-4-carbonyl)-3-methyl-butyl]-4-[5-fluoro-2-(4-methyl-piperazin-1-yl)thiazol-4-yl]-benzamide] |  | in vivo exposure (whether measured as Cmax or AUC) [1]: very much greater |
| N[C@@H](Cc1ccccc1)C(=O)O [L-Phenylalanine] | 100% |  |
| OC[C@@H](O)[C@@H](O)[C@H](O)[C@H](O)CO [Mannitol] | 16% |  |
| CN(Cc1cnc2nc(N)nc(N)c2n1)c1ccc(C(=O)N[C@@H](CCC(=O)O)C(=O)O)cc1 [Methotrexate] | 20% |  |
| N—((S)-1-((3aS, 6R, 6aS)-6-methoxy-oxodihydro-2H-furo[3,2-b]pyrrol-4(5H, 6H, 6aH)-yl)-4-methyl-oxopentan-2-yl)-4-(2-(4-methylpiperazine-1-yl)thiazol-4-yl)benzamide |  | papp value [3]: 9e-07 cm/s |
